Patent publication US20100310543A1, “METHOD OF PREVENTING AND TREATING ACUTE BRAIN PATHOLOGIES” (UNIVERSITY OF ZURICH, priority 2007, published 2010)
Where “and” joins values, the source holds several entries; their conditions need not be identical. Equal values may be shown once. Read-outs that look alike come from different tables or passages of the source.

Experiments:
[1] = test system: acute hippocampal slices (area CA1); assay: f-EPSP recovery after transient OGD in acute hippocampal slices; assay type: cell-based, mouse; settings: for mean f-EPSP slope 80-90 min after the onset of OGD: 25 min OGD, % of pre-OGD baseline
Experimental: (§1) Adult mice were killed by cervical dislocation and the heads were immediately immersed in freshly prepared ice-cold artificial cerebrospinal fluid (aCSF: 119 mM NaCl, 11 mM D-glucose, 1.3 mM MgCl2.6H2O, 1.3 mM NaH2PO4, 2.5 mM KCl, 2.5 mM CaCl2, 26 mM NaHCO3, gassed with 95% O2/5% CO2 for a minimum of 20-min) for at least 3 min. Brains were quickly removed and hippocampi were extracted for electrophysiological recordings. Acute slices (400 μm thick) were prepared with a vibratome (Leica VT 1000S, Germany) in ice-cold oxygenated aCSF. Slices were transferred to an interface chamber at 34° C. for 40 to 50 min then kept at room temperature for at least 1-2 hours before recording. Recordings were performed in a submersion chamber (Slice Mini Chamber III/IV, Luigs & Neumann, Germany) continuously perfused with aCSF at approximately 1.1 ml/min. A monopolar electrode was placed in the stratum radiatum to activate Schaffer collaterals and test stimuli were applied at 0.033 Hz at an intensity set to evoke 1/3 of the maximum f-EPSP. Evoked f-EPSP were recorded in the stratum radiatum with a borosilicate micropipette filled with NaCl 3M or aCSF. The signal was amplified with an AXOPATCH 200B amplifier (Axon Instruments/Molecular Devices, Germany) and sampled using pCLAMP. Baseline responses were recorded for 10-min or until stable. For extracellular recordings in example 8, a monopolar electrode is placed in the Schaffer collateral fibers, and stimulation is applied at 0.033 Hz with stimulus intensity ranging from 20 to 80 μA, yielding evoked field EPSPs (fEPSPs) of […]. fEPSPs are recorded in the stratum radiatum using a borosilicate micropipette filled with aCSF.
For each electrophysiological experiment, the average slope of individual f-EPSP was measured from the initial 1-1.5 ms-portion following the fiber volley using Clampfit (Axon Instruments, Germany). For statistical analyses, the f-EPSP slope was averaged over 1-min and analyzed by three-way analysis of variance (ANOVA) using Statview 5.0 with sequences (10-min) and stimulation (1-min bins) as repeated measures. […] Infarct volume and DNA fragmentation were analyzed by two-tailed t-tests. Western blots were evaluated by one-way ANOVA followed by LSD post-hoc tests. Statistical significance was set at p=0.05, data are presented as mean±SEM.
Graded doses of OA were used to inhibit both PP1 and PP2A, or PP2A alone.

PP1 [2] = settings: literature ranges, cited from earlier work
PP2A = settings: literature ranges, cited from earlier work
hippocampal slices = settings: 1 μM OA; cited from earlier work
[3] = test system: hippocampal slices (Schaffer collaterals/CA1); assay: LTD (f-EPSP slope) in hippocampal slices; assay type: cell-based, mouse; settings: 1 nM tautomycin, LTD without OGD
Experimental: as §1, with “1.1 ml/min. […] Evoked f-EPSP” for “1.1 ml/min. A monopolar electrode was placed in the stratum radiatum to activate Schaffer collaterals and test stimuli were applied at 0.033 Hz at an intensity set to evoke 1/3 of the maximum f-EPSP. Evoked f-EPSP”, “or aCSF. […] Baseline responses” for “or aCSF. The signal was amplified with an AXOPATCH 200B amplifier (Axon Instruments/Molecular Devices, Germany) and sampled using pCLAMP. Baseline responses”, “with aCSF. […]” for “with aCSF.”

PP1 [4] = settings: 1 nM tautomycin (submaximal dose); cited from earlier work
ERK1 = assay: Western blot of phosphorylated ERK1 in slices subjected to OGD; settings: control slices treated with tautomycin (3 nM) and subjected to OGD
Experimental: (§2) Acute slices (hippocampus, cortex and striatum) were exposed to 15 to 25-min of hypoxic/aglycemic conditions by perfusion with aCSF containing no glucose (replaced with equimolar sucrose) and gassed with N2/CO2 (95/5%) (Lobner and Lipton, 1993; Raley-Susman and Lipton, 1990). […] The OGD solution reached the recording chamber within 30 seconds and replaced the normoxic aCSF within 2-3 min.
(§3) Drugs for slice recordings were bath-applied for 2 hours before recording in oxygenated aCSF. Okadaic acid (Alexis Corporation, Switzerland) and tautomycin (Alexis Corporation and Sigma Aldrich, Switzerland) were dissolved in DMSO (30 mM) and methanol or ethanol (1 mM), respectively, and stock solutions were diluted further in aCSF the day of the experiment. The respective solvents were used for drug-control experiments. For both mutant and control slices, the aCSF was supplemented with doxycycline hydrochloride (Sigma, Buchs, Switzerland) at 8 ng/ml.
(§4) Tissue samples from the striatum ipsilateral and contralateral to MCAO or from acute forebrain slices (hippocampus, cortex and striatum) were homogenized in lysis buffer and centrifuged. Supernatants were resolved on SDS-PAGE and proteins were transferred onto PVDF membranes. […] The band intensity was determined by densitometry and corrected for protein loading using anti-β-actin antibody (A5316; Sigma) as an internal control.

ERK2 = assay: Western blot of phosphorylated ERK2 in slices subjected to OGD; settings: control slices treated with tautomycin (3 nM) and subjected to OGD
Experimental: as §2, §3, §4

JNK1 = assay: Western blot of phosphorylated JNK1 in slices subjected to OGD; settings: PP1 inhibition (tautomycin) or OGD in vitro
Experimental: as §2, §3, §4

JNK2 = assay: Western blot of phosphorylated JNK2 in slices subjected to OGD; settings: PP1 inhibition (tautomycin) in vitro
Experimental: as §2, §3, §4

| SMILES | mean f-EPSP slope 80-90 min after the onset of OGD ([1]; 0.1 nM drug) [%] | mean f-EPSP slope 80-90 min after the onset of OGD ([1]; 1 nM drug) [%] | mean f-EPSP slope 80-90 min after the onset of OGD ([1]; 10 nM drug) [%] | mean f-EPSP slope 80-90 min after the onset of OGD ([1]; 100 nM drug) | mean f-EPSP slope 80-90 min after the onset of OGD ([1]; 1 μM drug) | IC50 (PP1 [2]) [nM] | IC50 (PP1 [2]; listed as okadaic acid) [nM] | IC50 (PP2A) | IC50 (PP2A; listed as okadaic acid) [nM] | effect on LTP induced by a single 1-sec train at 100 Hz (hippocampal slices) | f-EPSP slope after LTD+OGD, % of baseline 90 min after LTD induction ([1]; 1 nM tautomycin, I-1* mutant slices, LTD 10 min prior to OGD) [%] | mean f-EPSP slope 80-90 min after the onset of OGD ([1]; 3 nM drug) [%] | f-EPSP slope after LTD, % of baseline at 90 min ([3]; I-1* mutant slices) [%] | f-EPSP slope after LTD, % of baseline at 90 min ([3]; control slices) [%] | PP1 inhibition (PP1 [4]) | increase in phosphorylated ERK1 (ERK1) | increase in phosphorylated ERK2 (ERK2) | JNK1 phosphorylation (JNK1) | phosphorylated JNK2 (JNK2) |
| --- | --- | --- | --- | --- | --- | --- | --- | --- | --- | --- | --- | --- | --- | --- | --- | --- | --- | --- | --- |
| C=C1[C@@H](O)[C@@H]2O[C@]3(CC[C@H](/C=C/[C@@H](C)[C@@H]4CC(C)=C[C@@]5(O[C@H](C[C@@](C)(O)C(=O)O)CC[C@H]5O)O4)O3)CC[C@H]2O[C@@H]1[C@@H](O)C[C@H](C)[C@H]1O[C@@]2(CCCCO2)CC[C@H]1C [OA, okadaic acid] | 76.6±20.5 | 86.8±5.2 | 56.6±23.9 | 43.5±16.6% and 43.1±15.6% | 20.2±13.9% and 20.3±14.4% | 20 to 100 | 10 to 1300 | 0.1 to 1 nM | 0.02 to 1 | blocked | – | – | – | – | – | – | – | – | – |
| CO[C@H]([C@H](O)CC(=O)[C@@H](C)[C@@H](O)CC[C@@H](C)[C@@H]1O[C@]2(CC[C@@H](C)[C@H](CC[C@H](C)C(C)=O)O2)CC[C@@H]1C)[C@H](OC(=O)C[C@@H](O)C1=C(C)C(=O)OC1=O)C(C)C [tautomycin] | – | 88.6±1.5 | 4.4±2.9 | 0.9±1.3% | – | – | – | 10 to 23 nM and 10 to 20 nM | – | – | 37.0±10.8 | 31.4±4.6 | 96.3±3.6 | 85.2±3.0 | about 30% | +366.8±48.6% | +404.1±28.5% | not altered | did not increase |
